Measurements from the supplement of paper PMC4862054.

How the values were obtained:
Assay in all cases: normalised response (% of control), CellTiter-Glo; higher = more viable cells (100 = DMSO, 0 = benzethonium chloride kill control)
Settings in all cases: incubation time: 72 h
[1] = tested on: Hs578T
In short: (§1)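 The table gives the normalised signal for a single concentration in each entry. Breast cancer cell lines were seeded (20 µl suspension) into 384-well plates holding compound at 5 concentrations in 10-fold steps over a compound-specific 10,000-fold range and incubated 72 h, then read for CellTox Green fluorescence (485/520 nm) and CellTiter-Glo luminescence. Normalisation on each plate used 0.1 % DMSO (100) and a positive kill control (0).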

[2] = tested on: MDA-MB-453
In short: as §1

[3] = tested on: BT-549
In short: as §1

[4] = tested on: MDA-MB-436
In short: as §1

[5] = tested on: BT-474
In short: as §1

[6] = tested on: CAL-120
In short: as §1

[7] = tested on: MDA-MB-468
In short: as §1

[8] = tested on: HCC1599
In short: as §1

[9] = tested on: MCF-10A
In short: as §1

[10] = tested on: HCC1143
In short: as §1

[11] = tested on: MDA-MB-231
In short: as §1

[12] = tested on: CAL-85-1
In short: as §1

[13] = tested on: CAL-148
In short: as §1

[14] = tested on: HDQ-P1
In short: as §1

[15] = tested on: HCC1937
In short: as §1

[16] = tested on: DU-4475
In short: as §1

[17] = tested on: SK-BR-3
In short: as §1

[18] = tested on: MFM-223
In short: as §1

[19] = tested on: CAL-51
In short: as §1

SMILES	normalised response [1] [%]	normalised response [2] [%]	normalised response [3] [%]	normalised response [4] [%]	normalised response [5] [%]	normalised response [6] [%]	normalised response [7] [%]	normalised response [8] [%]	normalised response [9] [%]	normalised response [10] [%]	normalised response [11] [%]	normalised response [12] [%]	normalised response [13] [%]	normalised response [14] [%]	normalised response [15] [%]	normalised response [16] [%]	normalised response [17] [%]	normalised response [18] [%]	normalised response [19] [%]
CC(C)(C)Cn1c(N)nc2ccc(-c3[nH]c(C(C)(C)C)nc3-c3ccc(F)cc3)nc21 (1 nM)	95.4	110	103	101	103	98.8	102	104	109	104	99.3	99.9	110	101	105	98.1	104	106	117
CC(C)(C)Cn1c(N)nc2ccc(-c3[nH]c(C(C)(C)C)nc3-c3ccc(F)cc3)nc21 (10 nM)	106	104	95.9	104	103	97.8	102	95.5	106	104	99.7	97.8	110	95.6	95.1	105	–	105	97.5
Cn1cc(C[C@@H](N)C(=O)O)c2ccccc21 [1-methyl-D-tryptophan] (0.5 nM)	99.3	99.4	101	103	96.1	95.6	98	102	97.1	96.5	95.2	94.3	87.4	105	97.6	101	93	92.8	113
Cn1cc(C[C@@H](N)C(=O)O)c2ccccc21 [1-methyl-D-tryptophan] (5 nM)	93.2	90.1	95.7	107	100	95.1	98.3	107	95.2	102	96.8	91.3	88.9	104	98.5	95.8	99.8	94.2	94.2
CC[C@H](CC#N)OC(=O)N[C@@H](C)c1cccc(NC(=O)Nc2ccc(-c3cnco3)c(OC)c2)c1 [AVN944] (1 nM)	97.8	99.6	98.5	91.1	89.2	96.7	97.2	90.3	99.1	93.2	96.1	97	99.8	99.4	103	97.9	95.7	93.5	112
CC[C@H](CC#N)OC(=O)N[C@@H](C)c1cccc(NC(=O)Nc2ccc(-c3cnco3)c(OC)c2)c1 [AVN944] (10 nM)	96.4	82.7	91.5	97.6	89.4	95	111	88.6	99.7	97.3	101	95.8	99.3	100	96	97.5	–	96.2	122
Cc1c(N)nc([C@H](CC(N)=O)NC[C@H](N)C(N)=O)nc1C(=O)N[C@H](C(=O)N[C@H](C)[C@@H](O)[C@H](C)C(=O)N[C@H](C(=O)NCCc1nc(-c2nc(C(=O)NCCC[S+](C)C)cs2)cs1)[C@@H](C)O)[C@@H](OC1OC(CO)C(O)C(O)C1OC1OC(CO)C(O)C(OC(N)=O)C1O)c1cnc[nH]1 (stereo partly drawn) [Bleomycin] (10 nM)	99.8	104	87.6	94.2	95.7	97.3	98	97.7	100	98.9	96.3	96.1	85	97.6	93.3	98.1	106	101	97.5
Cc1cc2c(F)c(Oc3ncnn4cc(OC[C@@H](C)O)c(C)c34)ccc2[nH]1 [Brivanib] (1 nM)	103	107	95.2	102	107	98.9	108	103	107	104	104	102	111	97.8	102	111	–	110	74.5
CCCCCOC(=O)Nc1nc(=O)n([C@@H]2O[C@H](C)[C@@H](O)[C@H]2O)cc1F [Capecitabine] (10 nM)	98.1	107	93.2	98.7	99.6	102	91.9	86.9	105	96.9	96.4	97.4	110	99.6	98.8	100	99.5	103	99.6
CC(C)C[C@H](NC(=O)[C@H](CCc1ccccc1)NC(=O)CN1CCOCC1)C(=O)N[C@@H](Cc1ccccc1)C(=O)N[C@@H](CC(C)C)C(=O)[C@@]1(C)CO1 [Carfilzomib] (1 nM)	100	101	99.5	109	115	105	106	108	115	106	105	105	108	108	101	108	107	112	87.7
Nc1nc(Cl)nc2c1ncn2[C@@H]1O[C@H](CO)[C@@H](O)[C@@H]1F [Clofarabine] (10 nM)	105	91.3	98.3	95.1	102	101	98.9	95.2	105	102	93.5	105	107	96.8	95.8	102	–	101	72.2
CCN(CC)CCOc1ccc(C(=C(Cl)c2ccccc2)c2ccccc2)cc1 [Clomifene] (10 nM)	103	112	99.5	101	107	106	99.2	96.3	107	104	105	99.9	102	100	111	103	–	102	122
C[C@@H]1C[C@H]2[C@@H]3CCC4=CC(=O)C=C[C@]4(C)[C@@]3(F)[C@@H](O)C[C@]2(C)[C@@]1(O)C(=O)CO [Dexamethasone] (10 nM)	104	95.2	97.4	102	130	83.2	97.9	100	94	103	137	116	100	89.8	97.5	101	–	95.2	113
CCc1cnn2c(NCc3ccc[n+]([O-])c3)cc(N3CCCC[C@H]3CCO)nc12 [Dinaciclib] (0.1 nM)	99	99	109	99.3	97.1	99.6	93.8	103	106	102	98.5	98.4	110	104	102	102	103	100	82.8
CCc1cnn2c(NCc3ccc[n+]([O-])c3)cc(N3CCCC[C@H]3CCO)nc12 [Dinaciclib] (1 nM)	109	103	92.5	98.5	95.7	99.6	97.8	101	102	107	98.3	101	115	104	98.5	97.8	–	103	82.1
CC(C)NC[C@@H](C(=O)N1CCN(c2ncnc3c2[C@H](C)C[C@H]3O)CC1)c1ccc(Cl)cc1 [GDC-0068] (10 nM)	100	91.1	98.2	94.4	96.8	99.8	95.7	90.8	103	103	110	95.6	96.8	96.1	97	105	–	98.8	108
COc1cc2c(cc1-c1c(C)noc1C)ncc1[nH]c(=O)n([C@H](C)c3ccccn3)c12 [I-BET151] (10 nM)	99	91.7	91.9	101	98	100	99.2	100	108	107	105	99.4	111	97.9	98.5	103	–	103	94.3
COc1cc2c(N3CCN(C(=O)Nc4ccc(OC(C)C)cc4)CC3)ncnc2cc1OCCCN1CCCCC1 [Tandutinib] (1 nM)	98.6	95.1	94.9	107	99.9	104	102	90.9	99.8	103	101	107	101	103	99	102	–	103	118
C[C@@H](C(=O)O)c1ccc(-c2ccccc2)c(F)c1 [Tarenflurbil] (10 nM)	104	94.9	94.5	105	90.8	96.7	86.7	106	97.5	101	94.6	95.3	92.2	98	101	97	–	93.7	123
Cn1nnc2c(C(N)=O)ncn2c1=O [Temozolomide] (10 nM)	100	98	102	101	97	97.9	97	88.7	92.1	98.5	99.5	103	102	96.7	95.8	99.4	–	97.5	110
